A short description of this data set: comparative dissolution test in deionized water. The conditions noted are these: for time to complete dissolution: 200 mg suspended in 25 ml deionized water, 20° C., magnetic stirring at 25 rpm, monosodium salt.

Each structure is given as a SMILES string. A value given as a limit tells only on which side of the number the result lay.

Take `O=P([O-])(O)C(O)(Cc1cccnc1)P(=O)(O)O.[Na+]` [sodium risedronate hemipentahydrate, 3-pyridil-1-hydroxyethyliden-1,1-biphosphonic acid monosodium salt]: the “time to complete dissolution” value is given as > 30 ′.
Regarding `O=P([O-])(O)C(O)(Cc1cccnc1)P(=O)(O)O.[Na+]` [amorphous sodium risedronate, 3-pyridil-1-hydroxyethyliden-1,1-biphosphonic acid monosodium salt], the “time to complete dissolution” value was ≤ 2 ′. Further, the “water solubility with respect to crystalline forms” value (amorphous form, preferably lyophilized, vs commercially available or otherwise described crystalline forms) is given as “improved water solubility”.

These data come from patent US7858634B2, “Amorphous 3-pyridil-1-hydroxyethyliden-1,1-biphosphonic acid monosodium salt and process for the preparation thereof” (Chemi SpA, priority 2004, dated 2010).
